What was measured:
[1] = tested on: cortical neurons isolated from mouse foetuses; assay: Effect on glutamate-induced cortical neuronal toxicity; assay type: cell-based; conditions: monosodium glutamate 1 nmol·L^−1; L-carnitine/acetyl L-carnitine 5 nmol·L^−1, huperzine A 10 nmol·L^−1, added half an hour before glutamate; glutamate alone 20%
Method: As is known , persistent stimulation of glutamate receptors induces a neurotoxic effect leading to the death of neuronal cells: this is one of the mechanisms regarding as being responsible for the pathogenesis of Alzheimer's disease. The aim of these tests was to observe whether preincubation of cortical neuronal cells with L-carnitine+acetyl L-carnitine carnitine alone or in combination with huperzine A may lead to a reduction of glutamate-induced toxicity and to greater survival of neuronal cells. In these tests, cortical neurons isolated from mouse foetuses were used, according to the method described by Lin [Lin L., J. Nanjing Univ. (Natural Science Edition) 31:514, 1995—Lin L., Acta Pharmacol. Sinica, 17:221, 1996]. After isolating the cells, they were suspended on plates with a density of 6.4×10^8 cells/m^2 surface. To prevent proliferation of non-neuronal cells, […]. […]
The solutions of L-carnitine/acetyl L-carnitine or huperzine A were added to the Locke solution half an hour before monosodium glutamate. […] according to the procedure disclosed by Green (Green L. M., J. Immunol. Methods, 70:257, 1984).

[2] = tested on: glutamate-induced spontaneous motility in mice; assay: Glutamate excitability tests (hypermotility after intracerebral glutamate); assay type: in vivo; conditions: treatment one hour prior, huperzine A 0.05 mg/kg, L-carnitine 200 mg/kg + acetyl L-carnitine 50 mg/kg
Source text: Excitatory amino acids such as glutamate, if administered by intracerebral injection, produce a series of behavioural effects, the most evident of which is hypermotility.
To evaluate the effect of huperzine A and L-carnitine/acetyl L-carnitine and of a combination of these, mice received intracerebral injections of increasing doses of glutamate according to the method described by Lama (Lama E., Acta Pharmacol. Sinica, 9:252, 1988). The increase in spontaneous motility of these animals placed in a box with transparent walls was then evaluated by means of a photoelectric cell which recorded the number of passes for a period of five minutes. The motility test was conduced both in control animals and in animals treated one hour prior to injection of glutamate with huperzine A and with L-carnitine/acetyl L- carnitine and with a combination of these compounds. The results of these tests (see Table 2) indicate that treatment with huperzine A reduces the increase in motility induced by glutamate in mice, but that the greastest reduction is that obtained by administration of the combination of huperzine A and L-carnitine/acetyl L-carnitine.

C/C=C1\[C@H]2C=C(C)C[C@]1(N)c1ccc(=O)[nH]c1C2 [huperzine A]
survival rate of neuronal cells [1]: 30% | N. passes in 5 min observation ([2]; Glutamate 1 ng/mouse intracerebral, glutamate control 241 ± 35): 226 ± 24 | N. passes in 5 min observation ([2]; Glutamate 5 ng/mouse intracerebral, glutamate control 364 ± 39): 296 ± 16
